Laboratory results published in patent publication US11141452B2, “Bifunctional compounds for relief of pain comprising an opioid receptor agonist moiety and a NK1 receptor antagonist moiety and methods for treating pain” (THE ARIZONA BOARD OF REGENTS ON BEHALF OF THE UNIVERSITY OF …, priority 2014, dated 2021).
Where “and” joins values, the source holds several entries; their conditions need not be identical. Equal values may be shown once. Read-outs that look alike come from different tables or passages of the source. Non-standard residues stand in square brackets, D forms with d. Residues, ends and D or L forms follow the SMILES beside them. *: point of attachment. NH(3,5-(CF3)2-benzyl) = FC(F)(F)c1cc(CN*)cc(C(F)(F)F)c1; NMePhe(4-F) = CN[C@@H](Cc1ccc(F)cc1)C(=O)O; Phe(4-F) = N[C@@H](Cc1ccc(F)cc1)C(=O)O; Dmt = Cc1cc(O)cc(C)c1C[C@H](N)C(=O)O; NMeF = CN[C@@H](Cc1ccccc1)C(=O)O

Legend:
[1] = target: DOR (Homo sapiens, UniProt P41143); test: Radioligand binding assay at δ opioid receptor; details: for Ki: Ki^δ (nM)
Chain of DOR (Homo sapiens, UniProt P41143) (P41143 whole entry): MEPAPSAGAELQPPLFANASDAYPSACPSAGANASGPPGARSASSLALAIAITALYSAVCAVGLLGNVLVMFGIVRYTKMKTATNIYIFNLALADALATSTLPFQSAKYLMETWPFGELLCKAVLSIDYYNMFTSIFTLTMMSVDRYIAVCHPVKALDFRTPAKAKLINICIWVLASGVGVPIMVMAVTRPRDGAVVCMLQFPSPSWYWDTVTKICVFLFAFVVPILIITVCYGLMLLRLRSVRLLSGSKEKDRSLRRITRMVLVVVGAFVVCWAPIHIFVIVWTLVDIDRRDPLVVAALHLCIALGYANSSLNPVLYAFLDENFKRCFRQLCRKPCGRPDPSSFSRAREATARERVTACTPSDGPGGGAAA
Experimental: (§1) Binding affinities of these ligands were measured on radioligand binding assays. […] ([43]).

[2] = target: rNK1 (Rattus norvegicus, UniProt P14600); test: Radioligand binding assay at rat NK1 receptor; details: Ki^rNK1 (nM)
Chain of rNK1 (P14600 whole entry): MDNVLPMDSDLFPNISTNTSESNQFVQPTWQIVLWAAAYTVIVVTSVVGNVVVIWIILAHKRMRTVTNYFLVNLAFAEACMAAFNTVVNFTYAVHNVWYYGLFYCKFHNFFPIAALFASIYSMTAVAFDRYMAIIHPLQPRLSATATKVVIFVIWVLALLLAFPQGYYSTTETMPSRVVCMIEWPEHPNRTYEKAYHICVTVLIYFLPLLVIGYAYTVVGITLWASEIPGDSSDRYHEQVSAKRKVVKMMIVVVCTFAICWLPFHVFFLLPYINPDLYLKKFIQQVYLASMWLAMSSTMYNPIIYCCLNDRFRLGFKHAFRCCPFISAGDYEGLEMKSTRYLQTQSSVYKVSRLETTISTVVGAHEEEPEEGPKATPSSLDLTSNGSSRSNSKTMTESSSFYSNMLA
Experimental: as §1

[3] = target: T1, hNK1 (Homo sapiens, UniProt P25103); test: hNK1/CHO cell membrane radioligand binding assay ([3H]SP); details: for Ki: Ki^hNK1 (nM), hNK1/CHO membranes, [3H]SP; for Ki^hNK1/Ki^rNK1: ratio human/rat NK1
T1 construct: expressed in transfected cells; host or cells: CHO
T1 sequence (P25103 whole entry): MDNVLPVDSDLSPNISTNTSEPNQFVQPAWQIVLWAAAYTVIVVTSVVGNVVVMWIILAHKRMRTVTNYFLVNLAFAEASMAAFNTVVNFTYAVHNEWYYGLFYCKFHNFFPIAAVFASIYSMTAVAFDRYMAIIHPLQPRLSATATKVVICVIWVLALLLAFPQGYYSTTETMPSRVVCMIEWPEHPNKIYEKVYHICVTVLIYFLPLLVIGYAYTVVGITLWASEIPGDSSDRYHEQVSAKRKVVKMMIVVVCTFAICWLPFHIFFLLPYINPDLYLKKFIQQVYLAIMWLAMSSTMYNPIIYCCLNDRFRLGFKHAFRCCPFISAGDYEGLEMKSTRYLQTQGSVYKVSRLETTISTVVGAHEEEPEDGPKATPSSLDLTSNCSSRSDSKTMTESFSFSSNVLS

[4] = target: T2, DOR (Mus musculus, UniProt P32300); test: Mouse isolated vas deferens (MVD) functional assay; assay type: cell-based
T2 construct: Male ICR mice under CO2 anesthesia were sacrificed by cervical dislocation and the vasa differentia removed; from tissue; host or cells: mouse vas deferens (ICR mice)
T2 sequence (P32300 whole entry): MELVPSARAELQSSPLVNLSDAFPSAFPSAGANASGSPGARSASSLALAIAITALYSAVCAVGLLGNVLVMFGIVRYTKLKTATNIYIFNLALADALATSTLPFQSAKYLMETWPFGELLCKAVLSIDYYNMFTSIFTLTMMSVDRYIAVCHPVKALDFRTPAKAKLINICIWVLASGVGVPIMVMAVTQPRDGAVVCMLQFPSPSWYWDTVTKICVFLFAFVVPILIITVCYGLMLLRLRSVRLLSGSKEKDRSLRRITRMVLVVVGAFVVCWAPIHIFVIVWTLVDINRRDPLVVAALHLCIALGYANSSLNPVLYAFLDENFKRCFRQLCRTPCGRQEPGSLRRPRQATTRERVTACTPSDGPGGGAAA

[5] = target: MOR; test: Radioligand binding assay at μ opioid receptor; details: for Log[IC50±] (μ): log IC50 ± error; for Ki^μ/Ki^δ: ratio of binding affinities MOR/DOR
Experimental: as §1

[6] = target: T3, NK1R (Cavia porcellus, UniProt P30547); test: GPI/LMMP functional assay at NK1R (agonist and antagonist testing); assay type: cell-based, guinea pig; details: for GPI/LMMP (NK1R) Agonist: agonist activity at the concentration in the cell
T3 construct: The longitudinal muscle with myenteric plexus (LMMP) was carefully separated from the circular muscle; from tissue; host or cells: guinea pig ileum longitudinal muscle with myenteric plexus
T3 sequence (P30547 whole entry): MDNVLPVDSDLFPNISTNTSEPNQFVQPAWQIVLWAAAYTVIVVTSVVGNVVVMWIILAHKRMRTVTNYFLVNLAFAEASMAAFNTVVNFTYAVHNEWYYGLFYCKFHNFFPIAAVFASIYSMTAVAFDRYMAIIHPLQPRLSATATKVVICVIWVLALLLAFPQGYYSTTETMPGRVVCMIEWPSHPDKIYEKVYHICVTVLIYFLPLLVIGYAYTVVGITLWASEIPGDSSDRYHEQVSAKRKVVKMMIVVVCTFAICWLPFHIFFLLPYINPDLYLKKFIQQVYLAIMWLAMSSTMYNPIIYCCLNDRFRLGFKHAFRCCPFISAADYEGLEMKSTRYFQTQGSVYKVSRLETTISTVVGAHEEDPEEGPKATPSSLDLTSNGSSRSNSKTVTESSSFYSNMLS

[7] = tested on: MOR; test: Guinea pig isolated ileum (GPI) functional assay; assay type: cell-based
[8] = MVD (DOR) IC50 (nM), agonist activity, electrically stimulated tissue
[9] = GPI/LMMP (NK1R) Ke (nM) ± S.E.M., antagonist activity
[10] = agonist activity, electrically stimulated tissue, read-out: GPI (MOR) IC50
[11] = head of Table IX, read-out: GPI (MOR) ID50

Row | SMILES | IC50 [1] [nM] | Ki [2] | Ki [3] | Ki^hNK1/Ki^rNK1 [3] | IC50 [4, 8] | Ki [5] [nM] | Log[IC50±] (μ) [5] | Ki^μ/Ki^δ [5] | Kb [6, 9] | GPI/LMMP (NK1R) Agonist [6] | Ki [1] [nM] | GPI/MVD IC50 ratio [7] | IC50 [7, 10] | binding selectivity for MOR over DOR [5] [times] | IC50 [4] [nM] | higher agonist activity at DOR compared to MOR (functional assays) [4] [times] | Kb [6] [nM] | IC50 [7, 11] [nM]
1 | CC(C)C[C@H](NC(=O)[C@@H]1CCCN1C(=O)[C@@H](CO)NC(=O)[C@H](Cc1ccccc1)NC(=O)CNC(=O)[C@@H](C)NC(=O)[C@@H](N)Cc1ccc(O)cc1)C(=O)N[C@@H](Cc1c[nH]c2ccccc12)C(=O)NCc1cc(C(F)(F)F)cc(C(F)(F)F)c1 [AKG101] | 74.1 | 110 nM | 3 nM | 1/39 | 6.7 nM and 6.72 nM | 200 | −6.35 ± 0.26 | 6/1 | 28 ± 11.8 nM | None at 100 nM |  |  |  |  |  |  |  | 
2 | CC(C)C[C@H](NC(=O)[C@@H]1CCCN1C(=O)CNC(=O)[C@H](Cc1ccccc1)N(C)C(=O)CNC(=O)[C@@H](C)NC(=O)[C@@H](N)Cc1ccc(O)cc1)C(=O)N[C@@H](Cc1c[nH]c2ccccc12)C(=O)NCc1cc(C(F)(F)F)cc(C(F)(F)F)c1 [AKG113, H-Tyr-D-Ala-Gly-NMePhe-Gly-Pro-Leu-Trp-NH-Bn(3′,5′-(CF3)2)] (H-Y[dA]G[NMeF]GPLW-{NH(3,5-(CF3)2-benzyl)}) | 100 | 60 nM |  | 1/4 | 38.7 ± 9.69 nM | 3 | −8.23 ± 0.03 | 1/15 | 14.9 ± 2.9 nM | None at 100 nM | 46 | 2/1 | 79.2 nM | 15 |  |  |  | 
3 | CC(C)C[C@H](NC(=O)[C@@H]1CCCN1C(=O)c1ccc(CNC(=O)[C@H](Cc2ccccc2)N(C)C(=O)CNC(=O)[C@@H](C)NC(=O)[C@@H](N)Cc2ccc(O)cc2)cc1)C(=O)N[C@@H](Cc1c[nH]c2ccccc12)C(=O)NCc1cc(C(F)(F)F)cc(C(F)(F)F)c1 [AKG125, H-Tyr-D-Ala-Gly-NMePhe-4-Amb-Pro-Leu-Trp-NH-Bn(3′,5′-(CF3)2)] | 263 | 30 nM | 2.3 nM | 1/13 |  | 5 | −7.92 ± 0.11 |  |  | None at 100 nM |  | 10/1 | 470 nM and 471 nM | 23 | 46.3 ± 13.4 | 10 | 8.36 ± 4.12 | 
4 | CC(C)C[C@H](NC(=O)[C@@H]1CCCN1C(=O)CNC(=O)[C@H](Cc1ccc(F)cc1)NC(=O)CNC(=O)[C@@H](C)NC(=O)[C@@H](N)Cc1ccc(O)cc1)C(=O)N[C@@H](Cc1c[nH]c2ccccc12)C(=O)NCc1cc(C(F)(F)F)cc(C(F)(F)F)c1 [AKG130, H-Tyr-D-Ala-Gly-Phe(4-F)-Gly-Pro-Leu-Trp-NH-Bn(3′,5′-(CF3)2)] (H-Y[dA]G[Phe(4-F)]GPLW-{NH(3,5-(CF3)2-benzyl)}) | 11 | 72 nM | 1.54 nM | 1/47 | 11.9 ± 1.56 nM | 9 | −7.69 ± 0.06 | 2/1 | 11 nM and 10.6 nM | None at 300 nM | 5 |  | 340 nM and 339 nM |  |  |  |  | 
5 | CC(C)C[C@H](NC(=O)[C@@H]1CCCN1C(=O)CNC(=O)[C@H](Cc1ccc(F)cc1)N(C)C(=O)CNC(=O)[C@@H](C)NC(=O)[C@@H](N)Cc1ccc(O)cc1)C(=O)N[C@@H](Cc1c[nH]c2ccccc12)C(=O)NCc1cc(C(F)(F)F)cc(C(F)(F)F)c1 [AKG131, H-Tyr-D-Ala-Gly-NMePhe(4-F)-Gly-Pro-Leu-Trp-NH-Bn(3′,5′-(CF3)2)] (H-Y[dA]G[NMePhe(4-F)]GPLW-{NH(3,5-(CF3)2-benzyl)}) | 38 | 89 nM | 2 nM | 1/8 | 30 nM and 29.7 nM |  | −6.40 ± 0.32 | 11/1 | 35.8 ± 10.8 nM | None at 100 nM | 17 | 2/1 | 63 nM and 62.5 nM |  |  |  |  | 
6 | Cc1cc(O)cc(C)c1C[C@H](N)C(=O)N[C@H](C)C(=O)NCC(=O)N(C)[C@@H](Cc1ccccc1)C(=O)N[C@@H](CO)C(=O)N1CCC[C@H]1C(=O)N[C@@H](CC(C)C)C(=O)N[C@@H](Cc1c[nH]c2ccccc12)C(=O)NCc1cc(C(F)(F)F)cc(C(F)(F)F)c1 [AKG132] (H-[Dmt][dA]G[NMeF]SPLW-{NH(3,5-(CF3)2-benzyl)}) | 5.25 | 36 nM | 5.6 nM and 5.61 nM | 1/6 | 7.66 ± 2.03 nM | 0.4 | −9.03 ± 0.06 | 1/5 | 19.8 ± 2.9 nM | None at 30 nM | 2 |  | 43 nM |  |  |  |  | 42.6 ± 6
7 | CC(C)C[C@H](NC(=O)[C@@H]1CCCN1C(=O)[C@H](CO)NC(=O)[C@H](Cc1ccc(F)cc1)N(C)C(=O)CNC(=O)[C@@H](C)NC(=O)[C@@H](N)Cc1ccc(O)cc1)C(=O)N[C@@H](Cc1c[nH]c2ccccc12)C(=O)NCc1cc(C(F)(F)F)cc(C(F)(F)F)c1 [AKG134] (H-Y[dA]G[NMePhe(4-F)]SPLW-{NH(3,5-(CF3)2-benzyl)}) | 14.5 | 50.2 ± 16.9 nM | 7.95 ± 0.87 nM | 1/6 | 8.94 ± 0.795 nM | 2 | −8.27 ± 0.11 | 1/4 | 1.86 ± 0.43 nM | None at 30 nM | 7 | 21/1 |  |  |  |  |  | 184 ± 30.9
8 | Cc1cc(O)cc(C)c1C[C@H](N)C(=O)N[C@H](C)C(=O)NCC(=O)N(C)[C@@H](Cc1ccc(F)cc1)C(=O)N[C@@H](CO)C(=O)N1CCC[C@H]1C(=O)N[C@@H](CC(C)C)C(=O)N[C@@H](Cc1c[nH]c2ccccc12)C(=O)NCc1cc(C(F)(F)F)cc(C(F)(F)F)c1 [AKG135] (H-[Dmt][dA]G[NMePhe(4-F)]SPLW-{NH(3,5-(CF3)2-benzyl)}; N-terminus assumed) | 1 | 51.7 ± 16.2 nM | 7.26 ± 0.59 nM | 1/7 | 15.4 ± 5.4 nM | 0.5 | −8.93 ± 0.09 | 1/1 | 28.7 ± 11.1 nM | None at 100 nM | 0.5 | 2/1 | 23 nM |  |  |  |  | 23.4 ± 4.74
9 | CC(C)C[C@H](NC(=O)[C@@H]1CCCN1C(=O)c1ccc(NC(=O)[C@H](Cc2ccccc2)N(C)C(=O)CNC(=O)[C@@H](C)NC(=O)[C@@H](N)Cc2ccc(O)cc2)cc1)C(=O)N[C@@H](Cc1c[nH]c2ccccc12)C(=O)NCc1cc(C(F)(F)F)cc(C(F)(F)F)c1 [AKG176, H-Tyr-D-Ala-Gly-NMePhe-4-Abz-Pro-Leu-Trp-NH-Bn(3′,5′-(CF3)2)] | 182 | 74 nM | 5.3 nM | 1/19 |  | 1 | −8.69 ± 0.24 | 1/82 |  | None at 300 nM | 70 | 2/1 | 40.8 ± 8 nM |  | 22.8 ± 5.53 |  | 117 ± 31.4 | 
10 | CC(C)C[C@H](NC(=O)[C@@H]1CCCN1C(=O)CNC(=O)[C@H](CO)NC(=O)[C@H](Cc1ccccc1)N(C)C(=O)CNC(=O)[C@@H](C)NC(=O)[C@@H](N)Cc1ccc(O)cc1)C(=O)N[C@@H](Cc1c[nH]c2ccccc12)C(=O)NCc1cc(C(F)(F)F)cc(C(F)(F)F)c1 [AKG-CRA-136] (H-Y[dA]G[NMeF]SGPLW-{NH(3,5-(CF3)2-benzyl)}) | 85.1 | 156 ± 2.33 nM | 9.23 ± 1.38 nM | 1/17 | 22.6 ± 2.07 nM | 3 | −8.07 ± 0.18 | 1/9 | 27.6 ± 2.9 nM | None at 100 nM | 38 | 5/1 |  |  |  |  |  | 108 ± 44.8
11 | CC(C)C[C@H](NC(=O)[C@@H]1CCCN1C(=O)CNC(=O)[C@H](CCC(N)=O)NC(=O)[C@H](Cc1ccccc1)N(C)C(=O)CNC(=O)[C@@H](C)NC(=O)[C@@H](N)Cc1ccc(O)cc1)C(=O)N[C@@H](Cc1c[nH]c2ccccc12)C(=O)NCc1cc(C(F)(F)F)cc(C(F)(F)F)c1 [AKG-SK-145] (H-Y[dA]G[NMeF]QGPLW-{NH(3,5-(CF3)2-benzyl)}) | 14.5 | 120 nM and 125 nM | 7.5 nM | 1/16 |  | 2 | −8.43 ± 0.08 | 1/3 |  |  | 6 |  |  |  |  |  |  | 
12 | Cc1cc(O)cc(C)c1C[C@H](N)C(=O)N[C@H](C)C(=O)NCC(=O)N(C)[C@@H](Cc1ccccc1)C(=O)N[C@@H](CCC(N)=O)C(=O)NCC(=O)N1CCC[C@H]1C(=O)N[C@@H](CC(C)C)C(=O)N[C@@H](Cc1c[nH]c2ccccc12)C(=O)NCc1cc(C(F)(F)F)cc(C(F)(F)F)c1 [AKG-SK-146] (H-[Dmt][dA]G[NMeF]QGPLW-{NH(3,5-(CF3)2-benzyl)}; N-terminus assumed) | 1.41 | 78.6 ± 9.8 nM | 6.37 ± 1.54 nM | 1/15 |  | 0.6 | −8.94 ± 0.17 | 1/1 |  |  | 0.6 |  |  |  |  |  |  | 
